Measurements published in patent US20230293407A1, “Compositions Comprising (Bio)-Alkanediols with Antimicrobials for Product Protection” (Symrise AG, priority 2020, published 2023).

Columns and labels:
[1] = test system: Pseudomonas aeruginosa; experiment: preservation efficacy test (PET), European Pharmacopoeia 5.1.3; type: cell-based
[2] = test system: Staphylococcus aureus; experiment: as above; type: cell-based
[3] = test system: Escherichia coli; experiment: as above; type: cell-based; conditions: for number of microorganisms, 14 days / number of microorganisms, 28 days: Escherichia coli (EC)
[4] = test system: Candida albicans; experiment: as above; type: cell-based; conditions: for count at 2 days / count at 7 days / count at 14 days / count at 28 days: CA, use concentration in label
[5] = test system: Aspergillus brasiliensis; experiment: as above; type: cell-based; conditions: for count at 2 days / count at 7 days / count at 14 days / count at 28 days: AB, use concentration in label
[6] = test system: bacteria; experiment: preservation efficacy test (PET), overview of the effect against bacteria; type: cell-based; conditions: PET in formulation, result in words on Table 7
[7] = test system: yeast; experiment: preservation efficacy test (PET), overview of the effect against yeast; type: cell-based, Candida albicans; conditions: PET in formulation, result in words on Table 7
[8] = test system: fungi/mould; experiment: preservation efficacy test (PET), overview of the effect against fungi/mould; type: cell-based, Aspergillus brasiliensis; conditions: PET in formulation, result in words on Table 7
[9] = maximum water solubility of alkanediols, visual observation; type: physicochemical; conditions: ambient temperature after 24 h storage at 5° C.
Source text: The water solubility of a substance is the saturation mass concentration of the substance in water at a given temperature. The determination of the solubility in water relates to essentially pure substances which are stable in water and not volatile. The determination of the water solubility of the alkanediols is further described in the following Example 2.
For the determination of the maximum water solubility of an alkanediol, water and different concentrations of the respective alkanediol were blended by stirring. […] The determination of whether the alkanediol has dissolved in water is based entirely on visual observation.

[10] = 14 days after inoculation, substance at given % in test formulation
[11] = 28 days after inoculation, substance at given % in test formulation
[12] = 2 days after inoculation, substance at given % in test formulation, listed as 0.2% 1,2-heptanediol
[13] = 7 days after inoculation, substance at given % in test formulation, listed as 0.2% 1,2-heptanediol
[14] = 28 days after inoculation, substance at given % in test formulation, listed as 0.2% 1,2-heptanediol
[15] = 28 days after inoculation, substance at given % in test formulation, listed as 0.4% 1,2-heptanediol
[16] = 2 days after inoculation, listed as 0.6% 1,2-heptanediol
[17] = 2 days after inoculation, listed as 0.8% 1,2-heptanediol
[18] = 7 days after inoculation, listed as 0.6% 1,2-heptanediol
[19] = 7 days after inoculation, listed as 0.8% 1,2-heptanediol
[20] = 14 days after inoculation, listed as 0.6% 1,2-heptanediol
[21] = 14 days after inoculation, listed as 0.8% 1,2-heptanediol
[22] = 28 days after inoculation, listed as 0.6% 1,2-heptanediol
[23] = 28 days after inoculation, listed as 0.8% 1,2-heptanediol

Q: For `CCCCCC(O)CO` (stereo not drawn) [1,2-heptanediol], which “PA germ count, 2 days” value ([1]; 2 days after inoculation, substance at given % in test formulation) is on record?
A: The value was 1.

Q: What about the “PA germ count, 7 days” value ([1]; 7 days after inoculation, substance at given % in test formulation) of the same molecule?
A: Its value is 1.

Q: What about the “PA germ count, 14 days” value [1, 10] of the same molecule?
A: The value was 1.

Q: What about the “PA germ count, 28 days” value [1, 11] of the same molecule?
A: Its value is 1.

Q: What about the “count at 2 days” value ([1]; PA, 2 days after inoculation, use concentration in label) of the same molecule?
A: Its value is 1.

Q: What about the “count at 7 days” value ([1]; PA, 7 days after inoculation, use concentration in label) of the same molecule?
A: Its value is 1.

Q: And the “count at 14 days” value ([1]; PA, 14 days after inoculation, use concentration in label)?
A: The value was 1.

Q: What about the “count at 28 days” value ([1]; PA, 28 days after inoculation, use concentration in label) of the same molecule?
A: Its value is 1.

Q: What about the “SA germ count, 2 days” value [2, 12] of the same molecule?
A: The value was 95.000.

Q: What about the “SA germ count, 7 days” value [2, 13] of the same molecule?
A: The value was 1.

Q: What about the “SA germ count, 14 days” value [2, 10] of the same molecule?
A: Its value is 1.

Q: And the “SA germ count, 28 days” value [2, 11]?
A: The value was 1.

Q: What about the “number of microorganisms, 2 days” value ([2]; PET in shampoo, Staphylococcus aureus (SA), 2 days after inoculation) of the same molecule?
A: The value was 10.

Q: And the “number of microorganisms, 7 days” value ([2]; PET in shampoo, Staphylococcus aureus (SA), 7 days after inoculation)?
A: Its value is 10.

Q: And the “number of microorganisms, 14 days” value ([2]; PET in shampoo, Staphylococcus aureus (SA), 14 days after inoculation)?
A: The value was 1.

Q: What about the “number of microorganisms, 28 days” value ([2]; PET in shampoo, Staphylococcus aureus (SA), 28 days after inoculation) of the same molecule?
A: The value was 1.

Q: What about the “number of microorganisms, 14 days” value ([2]; PET, Staphylococcus aureus (SA), 14 days after inoculation) of the same molecule?
A: The value was 1.

Q: And the “number of microorganisms, 28 days” value ([2]; PET, Staphylococcus aureus (SA), 28 days after inoculation)?
A: Its value is 1.

Q: What about the “count at 2 days” value ([2]; SA, 2 days after inoculation, use concentration in label, listed as 0.6% 1,2-heptanediol) of the same molecule?
A: Its value is 1.

Q: What about the “count at 2 days” value ([2]; SA, 2 days after inoculation, use concentration in label, listed as 0.8% 1,2-heptanediol) of the same molecule?
A: The value was 1.

Q: And the “count at 7 days” value ([2]; SA, 7 days after inoculation, use concentration in label, listed as 0.6% 1,2-heptanediol)?
A: The value was 1.

Q: What about the “count at 7 days” value ([2]; SA, 7 days after inoculation, use concentration in label, listed as 0.8% 1,2-heptanediol) of the same molecule?
A: The value was 1.

Q: And the “count at 14 days” value ([2]; SA, 14 days after inoculation, use concentration in label)?
A: The value was 1.

Q: What about the “count at 28 days” value ([2]; SA, 28 days after inoculation, use concentration in label) of the same molecule?
A: Its value is 1.

Q: What about the “EC germ count, 2 days” value [3, 12] of the same molecule?
A: The value was 38.000.

Q: And the “EC germ count, 7 days” value [3, 13]?
A: The value was 73.

Q: And the “EC germ count, 14 days” value ([3]; 14 days after inoculation, substance at given % in test formulation, listed as 0.2% 1,2-heptanediol)?
A: Its value is 1.

Q: And the “EC germ count, 14 days” value ([3]; 14 days after inoculation, substance at given % in test formulation, listed as 0.4% 1,2-heptanediol)?
A: Its value is 1.

Q: And the “EC germ count, 28 days” value [3, 14]?
A: Its value is 1.

Q: And the “EC germ count, 28 days” value [3, 15]?
A: Its value is 1.

Q: What about the “count at 2 days” value ([3]; EC, 2 days after inoculation, use concentration in label, listed as 0.6% 1,2-heptanediol) of the same molecule?
A: Its value is 1.

Q: And the “count at 2 days” value ([3]; EC, 2 days after inoculation, use concentration in label, listed as 0.8% 1,2-heptanediol)?
A: Its value is 1.

Q: And the “count at 7 days” value ([3]; EC, 7 days after inoculation, use concentration in label, listed as 0.6% 1,2-heptanediol)?
A: The value was 1.

Q: What about the “count at 7 days” value ([3]; EC, 7 days after inoculation, use concentration in label, listed as 0.8% 1,2-heptanediol) of the same molecule?
A: Its value is 1.

Q: What about the “count at 14 days” value ([3]; EC, 14 days after inoculation, use concentration in label) of the same molecule?
A: Its value is 1.

Q: What about the “count at 28 days” value ([3]; EC, 28 days after inoculation, use concentration in label) of the same molecule?
A: The value was 1.

Q: And the “number of microorganisms, 14 days” value ([3]; PET in shampoo, 14 days after inoculation)?
A: The value was 200.000.

Q: What about the “number of microorganisms, 28 days” value ([3]; PET in shampoo, 28 days after inoculation) of the same molecule?
A: The value was 1.

Q: What about the “number of microorganisms, 14 days” value ([3]; PET, 14 days after inoculation) of the same molecule?
A: The value was 1.

Q: And the “number of microorganisms, 28 days” value ([3]; PET, 28 days after inoculation)?
A: Its value is 1.

Q: And the “CA germ count, 28 days” value [4, 14]?
A: Its value is 620.000.

Q: What about the “count at 2 days” value [4, 16] of the same molecule?
A: Its value is 69.000.

Q: And the “count at 2 days” value [4, 17]?
A: The value was 68.000.

Q: What about the “count at 7 days” value [4, 18] of the same molecule?
A: Its value is 2.800.

Q: And the “count at 7 days” value [4, 19]?
A: Its value is 1.

Q: What about the “count at 14 days” value [4, 20] of the same molecule?
A: The value was 1.

Q: And the “count at 14 days” value [4, 21]?
A: Its value is 1.

Q: And the “count at 28 days” value [4, 22]?
A: The value was 1.

Q: What about the “count at 28 days” value [4, 23] of the same molecule?
A: Its value is 1.

Q: And the “number of microorganisms, 2 days” value ([4]; PET in shampoo, Candida albicans (CA), 2 days after inoculation)?
A: The value was 220.000.

Q: What about the “number of microorganisms, 7 days” value ([4]; PET in shampoo, Candida albicans (CA), 7 days after inoculation) of the same molecule?
A: The value was 62.000.

Q: What about the “number of microorganisms, 14 days” value ([4]; PET in shampoo, Candida albicans (CA), 14 days after inoculation) of the same molecule?
A: Its value is 8.100.

Q: And the “number of microorganisms, 28 days” value ([4]; PET in shampoo, Candida albicans (CA), 28 days after inoculation)?
A: The value was 1.

Q: What about the “AB germ count, 28 days” value [5, 15] of the same molecule?
A: Its value is 1.

Q: What about the “count at 2 days” value [5, 16] of the same molecule?
A: The value was 510.000.

Q: And the “count at 2 days” value [5, 17]?
A: The value was 670.000.

Q: What about the “count at 7 days” value [5, 18] of the same molecule?
A: The value was 16.000.

Q: What about the “count at 7 days” value [5, 19] of the same molecule?
A: The value was 410.000.

Q: What about the “count at 14 days” value [5, 20] of the same molecule?
A: Its value is 51.000.

Q: And the “count at 14 days” value [5, 21]?
A: The value was 63.000.

Q: What about the “count at 28 days” value ([5]; 28 days after inoculation, listed as 0.4% 1,2-heptanediol) of the same molecule?
A: The value was 1.

Q: And the “count at 28 days” value [5, 22]?
A: The value was 1.

Q: What about the “count at 28 days” value [5, 23] of the same molecule?
A: The value was 1.100.

Q: And the “efficacy against Aspergillus brasiliensis” value ([5]; PET in formulation, result in words on Table 7)?
A: The value was “significantly efficacy”.

Q: And the “number of microorganisms, 2 days” value ([5]; PET in shampoo, Aspergillus brasiliensis (AB), 2 days after inoculation)?
A: Its value is 240.000.

Q: What about the “number of microorganisms, 7 days” value ([5]; PET in shampoo, Aspergillus brasiliensis (AB), 7 days after inoculation) of the same molecule?
A: The value was 220.000.

Q: What about the “number of microorganisms, 14 days” value ([5]; PET in shampoo, Aspergillus brasiliensis (AB), 14 days after inoculation) of the same molecule?
A: Its value is 150.000.

Q: And the “number of microorganisms, 28 days” value ([5]; PET in shampoo, Aspergillus brasiliensis (AB), 28 days after inoculation)?
A: The value was 19.000.

Q: What about the “antimicrobial efficacy against bacteria” value [6] of the same molecule?
A: Its value is “concentration dependent antimicrobial efficacy”.

Q: And the “antimicrobial efficacy against yeast” value [7]?
A: The value was “concentration dependent antimicrobial efficacy”.

Q: And the “antimicrobial efficacy against fungi” value [8]?
A: The value was “concentration dependent antimicrobial efficacy”.

Q: What about the “Maximum solubility in water” value [9] of the same molecule?
A: Its value is 2.5 % by weight.
